How the values were obtained:
CRTH2 Receptor = molecular target: T1, CRTH2 Receptor (Homo sapiens, UniProt Q9Y5Y4); experiment: Radioligand binding assay, [3H]PGD2, CHO/CRTH2 cell membranes; conditions: [3H]PGD2 displacement, membranes of CHO cells transfected with CRTH2
T1 construct: expressed in transfected cells; host or cells: Chinese Hamster Ovary (CHO) cells, membranes
T1 sequence (Q9Y5Y4 1-395): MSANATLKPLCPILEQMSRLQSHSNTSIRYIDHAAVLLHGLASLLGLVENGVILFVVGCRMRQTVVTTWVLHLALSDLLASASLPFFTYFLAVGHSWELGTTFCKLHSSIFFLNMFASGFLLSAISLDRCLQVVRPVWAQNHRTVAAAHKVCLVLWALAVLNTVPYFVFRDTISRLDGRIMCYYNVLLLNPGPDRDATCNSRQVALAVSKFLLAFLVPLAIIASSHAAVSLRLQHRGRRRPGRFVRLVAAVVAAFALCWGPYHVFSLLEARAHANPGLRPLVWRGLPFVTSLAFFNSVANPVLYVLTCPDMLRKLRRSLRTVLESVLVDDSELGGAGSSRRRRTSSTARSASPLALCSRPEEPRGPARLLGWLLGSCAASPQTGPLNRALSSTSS
Protocol: (§1) Chinese Hamster Ovary cells were transfected with CRTH2 or DP receptors (CHO/CRTH2 and CHO/DP) and were maintained in culture in a humidified atmosphere at 37° C. (5% CO2) in Minimum Essential Medium (MEM) supplemented with 10% foetal bovine serum, 2 mM glutamine, and 1 mg ml^−1 active G418. The cells were passaged every 2-3 days. For radioligand binding assay, cells were prepared in triple-layer flasks or in 175 cm^2 square flasks (for membrane preparation). For calcium mobilisation assay, cells were grown in a 96 well plate 24h prior to the assay at a density of 80,000 cells per well.
(§2) Membranes were prepared either from CHO/CRTH2 and CHO/DP cells, or from platelets (as a source of TP receptors). CHO cells grown to confluency were washed with PBS and detached using a Versene solution (15 ml per flask). When the cells were grown in 175 cm^2 square flask, they were collected by scrapping in PBS. The cell suspensions were centrifuged (1,700 rpm, 10 min, 4° C.) and resuspended in 15 ml of buffer (1×HBSS, supplemented with 10 mM HEPES, pH 7.3). Cell suspensions were then homogenised using an Ultra Turrax at setting 4-6 for 20 s. The homogenate was centrifuged at 1,700 rpm for 10 min and the supernatant was collected and centrifuged at 20,000 rpm for 1 h at 4° C. The resulting pellet was resuspended in buffer and stored at −80° C. in aliquots of 200-500 μl. The protein concentration was determined by the method of Bradford (1976), using bovine serum albumin as standard. The platelets were washed by centrifugation at 600×g for 10 min and resuspended in ice-cold assay buffer (10 mM Tris-HCl, pH 7.4, 5 mM Glucose, 120 mM NaCl, 10 μM indomethacin) and directly centrifuged at 20,000 rpm for 30 min at 4° C. […]
(§3) [^3H]PGD2 (160 Ci/mmol) binding experiments were performed on membranes prepared as described above. […] The Unifilter plates were dried at room temperature for at least 1 h and the radioactivity retained on the filters was determined on a Beta Trilux counter (PerkinElmer Life Sciences), following addition of 40 μl of Optiphase Hi-Safe 3 (Wallac) liquid scintillation. […]

DP Receptor = molecular target: T2, DP Receptor (Homo sapiens, UniProt Q13258); experiment: Radioligand binding assay, [3H]PGD2, CHO/DP cell membranes; conditions: [3H]PGD2 displacement, membranes of CHO cells transfected with DP
T2 construct: expressed in transfected cells; host or cells: Chinese Hamster Ovary (CHO) cells, membranes
T2 sequence (Q13258 1-359): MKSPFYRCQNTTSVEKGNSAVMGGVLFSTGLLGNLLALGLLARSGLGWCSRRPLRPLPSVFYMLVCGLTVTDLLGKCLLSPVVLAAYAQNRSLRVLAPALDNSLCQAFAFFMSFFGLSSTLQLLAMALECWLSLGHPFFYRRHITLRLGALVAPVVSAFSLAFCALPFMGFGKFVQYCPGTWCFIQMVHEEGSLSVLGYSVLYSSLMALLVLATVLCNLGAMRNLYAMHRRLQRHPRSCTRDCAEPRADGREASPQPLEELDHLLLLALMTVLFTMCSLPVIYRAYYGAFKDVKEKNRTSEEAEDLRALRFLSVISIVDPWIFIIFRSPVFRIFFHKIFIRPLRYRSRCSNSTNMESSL
Protocol: as §1, §2, §3

Row | Ki (CRTH2 Receptor) [µM] | Ki (DP Receptor) [µM] | SMILES
1 | 0.001 | 9.2 | Cc1c(Cc2cccn2S(=O)(=O)c2ccccc2)c2cc(F)ccc2n1CC(=O)O [Compound 1, [3-(1-Benzenesulfonyl-1H-pyrrol-2-ylmethyl)-5-fluoro-2-methyl-indol-1-yl]-acetic acid]
2 | 0.0002 | 1.8 | Cc1ccc(S(=O)(=O)n2cccc2Cc2c(C)n(CC(=O)O)c3ccc(F)cc23)cc1 [Compound 2, {5-Fluoro-2-methyl-3-[1-(toluene-4-sulfonyl)-1H-pyrrol-2-ylmethyl]-indol-1-yl}-acetic acid]
3 | 0.002 | 8 | Cc1c(Cc2cccn2S(=O)(=O)c2ccc(F)cc2F)c2cc(F)ccc2n1CC(=O)O [Compound 3, {3-[1-(2,4-Difluoro-benzenesulfonyl)-1H-pyrrol-2-ylmethyl]-5-fluoro-2-methyl-indol-1-yl}-acetic acid]

— patent US8044088B2, “1-acetic acid-indole derivatives with PGD2 antagonist activity” (Oxagen Limited, priority 2005, dated 2011)
